The test system of test [1] is GLUT1. The experiment in a line: GLUT1 protein expression level of T cell. The conditions noted are these: CD3+ T cells activated 72 hours with anti-CD3 and anti-CD28 beads. Format: cell-based, mouse. The procedure:
Thus, referring to FIG. 4B, the results of mRNA expression of enzymes involved in glycolysis of T cells due to PI3K inhibitor treatment are shown. In this connection, in order to identify enzymes involved in glycolysis of T cells due to PI3K inhibitor treatment, the CD3+ T cells obtained in FIG. 2 are used. Furthermore, the obtained CD3+ T cell is activated for 72 hours using anti-CD3 and anti-CD28 beads to identify mRNA expression of enzymes involved in glycolysis. In this connection, CD3 secretes cytokine as a protein immunomodulator, and CD28 inhibits apoptosis. Only CD3-activated T cells may lead to apoptosis. Therefore, both CD3 and CD28 signals are used to increase T cell function and survival. Furthermore, referring to FIG. 5A, the result of GLUT1 protein expression level of T cell due to PI3K inhibitor treatment is shown. In this connection, T cell is treated in the same method as in FIG. 4B.

Another test has as its system T cells. The experiment in a line: Extracellular acidification rate (ECAR) of T cells. In kind it is cell-based, mouse. The procedure:
Further, referring to FIG. 5B, the extracellular acidification rate (ECAR) of T cells due to PI3K inhibitor treatment is shown. In this connection, to measure the extracellular acidification rate, the T cell used in FIG. 5A is used, and 1×10^5 T cells are used. Furthermore, the extracellular acidification rate refers to a measurement of glucose degradation via a change in pH resulting from lactate secretion in the medium. In this connection, as the oligomycin is injected to inhibit mitochondrial metabolism, T cells must produce ATP using only glycolysis. Thus, the extracellular acidification rate in phase 3 may mean pure glycolysis capacity. In this connection, 2DG is a molecule in which the 2-hydroxyl group of glucose is replaced with hydrogen and thus glucose may not be degraded. Furthermore, when the T cell is treated with 2DG, the extracellular acdification rate may be controlled in an upstream phase of glucose metabolism. Thus, the extracellular acidification rate in phase 4 may refer to the glucose reserve in the cell.

Test [2] relates to GLUT1. The experiment in a line: GLUT1 expression in T cells due to PI3K inhibitor and AKT inhibitor treatment. The conditions noted are these: both helper and cytotoxic T cells; p<0.05. Format: cell-based. The source says:
Furthermore, referring to FIG. 7, the GLUT1 expression level in the T cells due to PI3K inhibitor and AKT inhibitor treatment is shown.

Test [3] relates to lung-cancer cell line LLC2. The experiment in a line: Anti-cancer effect (tumor size) in lung-cancer cell line LLC2. In kind it is in vivo. Here is the method:
First, referring to FIG. 9A, the results of the anti-cancer effect in the lung-cancer cell line LLC2 due to PI3K inhibitor treatment are shown. […] However, when the PI3K inhibitor treatment is carried out, the tumor size is reduced compared to the control. More specifically, when the PI3K inhibitor BKM 120 treatment is carried out at 35 mpk, the tumor size on the 15th day is 300 to 350 mm^3. When BKM 120 treatment is carried out at 50 mpk, the tumor size on day 15 is found to be 90 to 100 mm^3.

The subject of test [4] is lung-cancer cell line KLN205. Description: Anti-cancer effect (tumor size) in lung-cancer cell line KLN205. In kind it is in vivo. Here is the method: Referring to FIG. 10A, the results of the anti-cancer effect against the lung-cancer cell line KLN205 due to the PI3K inhibitor treatment are shown. When the cell is treated with the vehicle as a control, the tumor size rapidly increases as the treatment days increase, and then the tumor size on the 15th day is 400 to 500 mm^3. However, when the cell is treated with the PI3K inhibitor, the tumor size is reduced compared to the control. More specifically, when the cell is treated with the PI3K inhibitor BKM 120 at 35 mpk, the tumor size on the 15th day is 200 to 250 mm^3. When the cell is treated with BKM 120 at 50 mpk, the tumor size on day 15 is found to be 90 to 100 mm^3.

For another test, the system named is pAKT (phosphoAKT). The experiment in a line: pAKT expression in CD4 and CD8 T cells by flow cytometry (MFI). Format: cell-based, mouse. Conditions: for AKT expression relative to control: after 48 hours. Here is the method: First, referring to FIG. 6, an expression level of pAKT (phosphoAKT) in an active state in the T cell due to PI3K inhibitor treatment is shown. In this connection, in order to identify AKT activation of T cells due to PI3K inhibitor treatment, the CD3+ T cells obtained in FIG. 2 are used. Furthermore, the obtained CD3+ T cells are co-cultured for 48 hours together with CD11c positive dendritic cells, anti-CD3 and anti-CD28. The pAKT expression is measured via flow cytometry in 6 and 48 hours after the co-culture has started. Furthermore, expression of pAKT is indicated as mean fluorescence intensity (MFI). Furthermore, CD4 and CD8 positive cells are used as T cells to measure expression of pAKT. In this connection, CD4 and CD8 are present in the cell membrane of the T cell and are cell-binding proteins that bind to non-polymorphic regions of class II MHC and class I MHC, respectively. CD4 may be a helper T cell as a T cell lineage marker. CD8 may refer to a cytotoxic T cell.
(A flow cytometer gives signals particle by particle.)

Consider `Nc1cc(C(F)(F)F)c(-c2cc(N3CCOCC3)nc(N3CCOCC3)n2)cn1` [BKM 120, buparlisib], for which the “GLUT1 expression level relative to control” value in the test on GLUT1 [1] is 6 to 7 times. Moreover, the “percentage of T cells expressing GLUT1 among all T cells” value in the test with GLUT1 [1] is on record as 60 to 70%. In addition, the “extracellular acidification rate versus control” value with T cells (phase 1, 1×10^5 T cells) is “higher”; with T cells (phase 2, glucose injected), “the difference between the extracellular acidification rates of the T cell group treated with PI3K inhibitor and the control increases”; in the test with T cells (phase 3, oligomycin injected (glycolysis capacity)), “higher extracellular acidification rate than that of the control”; with T cells (phase 4, 2-deoxy-D-glucose (2DG) injected (glucose reserve)) it was “higher extracellular acidification rate than that in the control”. In addition, the “GLUT1 expression in iPI3K+/iAKT− group relative to iPI3K−/iAKT−, iPI3K−/iAKT+ and iPI3K+/iAKT+ groups” value in the test with GLUT1 [2] was 2 to 3 times. The tumor size in test [3] (35 mpk, 15th day) is 300 to 350 mm^3; in test [3] (50 mpk, day 15), 90 to 100 mm^3; in test [4] (35 mpk, 15th day) it was 200 to 250 mm^3; in test [4] (50 mpk, day 15) it was 90 to 100 mm^3. The “AKT expression level relative to the AKT expression level at the start of culture” value with pAKT (phosphoAKT) (48 hours after the start of culture) is recorded as no less than 3 times. In addition, the “AKT expression versus control” value in the test on pAKT (phosphoAKT) (cytotoxic T cells (CD8), 0 to 25 hours) is listed as “lower AKT expression than that of the control”; with pAKT (phosphoAKT) (cytotoxic T cells (CD8), after 25 hours), “higher AKT expression than that of the control”; in the test with pAKT (phosphoAKT) (helper T cell (CD4), 0 to 20 hours) it was “lower AKT expression than that of the control”; in the test with pAKT (phosphoAKT) (helper T cell (CD4), after 20 hours) it was “higher AKT expression than that of the control”. Further, the results for the “AKT expression relative to control” value in the test on pAKT (phosphoAKT) (cytotoxic T cells (CD8)) and in the test on pAKT (phosphoAKT) (helper T cell (CD4)) were 1.3 to 1.7 times and 1.5 to 2 times, respectively. In the test with pAKT (phosphoAKT) (immune cells cultured after PI3K inhibitor treatment), the “time after the start of the culture at which the AKT level is increased again to the level before the PI3K treatment” value was determined as 20 h.

The record behind these values is patent US20210292710A1, “METHOD FOR ENHANCING IMMUNE FUNCTION OF IMMUNE CELL AND IMMUNE CELL LINE PRODUCED USING THE SAME” (INDUSTRY-ACADEMIC COOPERATION FOUNDATION, YONSEI UNIVERSITY, priority 2020, published 2021).
